In patent US10689414B2 (Agios Pharmaceuticals, Inc., priority 2013, dated 2020):

tested on: U87MG cells; assay: Cellular assay, inhibition of 2-HG production in U87MG cells; format: cell-based; settings: Homo sapiens, U-87 MG, 48 h
Procedure, shortened: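 HT1080 or U87MG cells (U87MG kept with 500 ug/mL G418) seeded at 5000 cells/well and treated with compound at 0.2% final DMSO. Incubated 48 h at 37 °C. 2-HG inhibition determined by LC-MS. Viability read by CellTiter-Glo luminescence at 72 h post-dose.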

IC50, < 100 nM:
N#Cc1ccnc(N2C(=O)CC[C@H]2C(=O)N(c2cccc(CCO)c2)[C@H](C(=O)NC2CC(F)(F)C2)c2ccccc2Cl)c1 [Compound 160, (S)—N—((S)-1-(2-Chlorophenyl)-2-((3,3-difluorocyclobutyl)amino)-2-oxoethyl)-1-(4-cyanopyri-din-2-yl)-N-(3-(2-hydroxyethyl)phenyl)-5-oxopyrrolidine-2-carboxamide]
CN(C)c1cccc(N(C(=O)[C@@H]2CCC(=O)N2c2cc(C#N)ccn2)[C@H](C(=O)NC2CC(F)(F)C2)c2ccccc2Cl)c1 [Compound 161, (S)—N—((S)-1-(2-Chlorophenyl)-2-(3,3-difluorocyclobutylamino)-2-oxoethyl)-1-(4-cyanopyri-din-2-yl)-N-(3-(dimethylamino)phenyl)-5-oxopyrrolidine-2-carboxamide]
N#Cc1cnc(N2C(=O)CC[C@H]2C(=O)N(c2cc(F)cc(F)c2)[C@H](C(=O)NC2CC(F)(F)C2)c2ccccc2Cl)o1 [Compound 162, (S)—N—((S)-1-(2-chlorophenyl)-2-((3,3-difluorocyclobutyl)amino)-2-oxoethyl)-1-(5-cyanooxa-zol-2-yl)-N-(3,5-difluorophenyl)-5-oxopyrrolidine-2-carboxamide]
[2H]c1c([2H])c([2H])c([C@@H](C(=O)NC2CC(F)(F)C2)N(C(=O)[C@@H]2CCC(=O)N2c2cc(C#N)ccn2)c2cc(F)cc(F)c2)c(Cl)c1[2H] [Compound 163]
COc1cccc(N(C(=O)[C@@H]2CCC(=O)N2c2nccc(C#N)n2)[C@H](C(=O)NC2CC(F)(F)C2)c2ccccc2Cl)c1 [Compound 164, (S)—N—((S)-1-(2-Chlorophenyl)-2-(3,3-difluorocyclobutyl-amino)-2-oxoethyl)-1-(4-cyanopyrimidin-2-yl)-N-(3-methoxyphenyl)-5-oxopyrrolidine-2-carboxamide]
N#Cc1cccc(N(C(=O)[C@@H]2CCC(=O)N2c2cc(C#N)ccn2)[C@H](C(=O)NC2CCC(F)(F)CC2)c2ccccc2Cl)c1 [Compound 166, (S)—N—((S)-1-(2-Chlorophenyl)-2-((4,4-difluorocyclohexyl)amino)-2-oxoethyl)-N-(3-cyanophenyl)-1-(4-cyanopyridin-2-yl)-5-oxopyrrolidine-2-carboxamide]
N#Cc1cccc(N(C(=O)[C@@H]2CCC(=O)N2c2nccc(C#N)n2)[C@H](C(=O)NC2CC(F)(F)C2)c2ccccc2Cl)c1 [Compound 167, (S)—N—((S)-1-(2-Chlorophenyl)-2-((3,3-difluorocyclobutyl)amino)-2-oxoethyl)-N-(3-cyanophenyl)-1-(4-cyanopyrimidin-2-yl)-5-oxopyrrolidine-2-carboxamide]
CS(=O)(=O)c1cc(F)cc(N(C(=O)[C@@H]2CCC(=O)N2c2nccc(C#N)n2)[C@H](C(=O)NC2CCC(F)(F)CC2)c2ccccc2Cl)c1 [Compound 168, (S)—N—((S)-1-(2-Chlorophenyl)-2-((4,4-difluorocyclohexyl)amino)-2-oxoethyl)-1-(4-cyanopyrimidin-2-yl)-N-(3-fluoro-5-(methylsulfonyl)phenyl)-5-oxopyrrolidine-2-carboxamide]
N#Cc1cccc(N(C(=O)[C@@H]2C[C@@H](O)C(=O)N2c2cc(C#N)ccn2)C(C(=O)NC2CC(F)(F)C2)c2ccccc2Cl)c1 (stereo partly drawn) [Compound 170, (2S,4R)—N-(1-(2-chlorophenyl)-2-((3,3-difluorocyclobutyl)amino)-2-oxoethyl)-N-(3-cyano-phenyl)-1-(4-cyanopyridin-2-yl)-4-hydroxy-5-oxopyrrolidine-2-carboxamide]
N#Cc1ccnc(N2C(=O)[C@@H](O)C[C@H]2C(=O)N(c2cc(F)cc(F)c2)[C@H](C(=O)NC2CC(F)(F)C2)c2ccccc2Cl)c1 [Compound 171, (2S,4S)—N—((S)-1-(2-Chlorophenyl)-2-((3,3-difluorocyclobutyl)amino)-2-oxoethyl)-1-(4-cyano-pyridin-2-yl)-N-(3,5-difluorophenyl)-4-hydroxy-5-oxopyrrolidine-2-carboxamide]
N#Cc1ccnc(N2C(=O)[C@@H](O)C[C@H]2C(=O)N(c2cccc(F)c2)[C@H](C(=O)NC2CCC(F)(F)CC2)c2ccccc2Cl)c1 [Compound 172, (2S,4S)—N—((S)-1-(2-Chlorophenyl)-2-((4,4-difluorocyclohexyl)amino)-2-oxoethyl)-1-(4-cyano-pyridin-2-yl)-N-(3-fluorophenyl)-4-hydroxy-5-oxopyrrolidine-2-carboxamide]
N#Cc1ccnc(N2C(=O)CC[C@H]2C(=O)N(c2cccc(C3CC3)c2)[C@H](C(=O)NC2CC(F)(F)C2)c2ccccc2Cl)c1 [Compound 173, (S)—N—((S)-1-(2-Chlorophenyl)-2-((3,3-difluorocyclobutyl)amino)-2-oxoethyl)-1-(4-cyanopyri-din-2-yl)-N-(3-cyclopropylphenyl)-5-oxopyrrolidine-2-carboxamide]
N#Cc1ccnc(N2C(=O)[C@@H](O)C[C@H]2C(=O)N(c2cc(F)cc(F)c2)[C@H](C(=O)NC2CCC(F)(F)CC2)c2ccccc2Cl)c1 [Compound 174, (2S,4S)—N—((S)-1-(2-Chlorophenyl)-2-((4,4-difluorocyclohexyl)amino)-2-oxoethyl)-1-(4-cyanopyridin-2-yl)-N-(3,5-difluorophenyl)-4-hydroxy-5-oxopyrrolidine-2-carboxamide]
N#Cc1ccnc(N2C(=O)CC[C@H]2C(=O)N(c2ccc3[nH]ncc3c2)[C@H](C(=O)NC2CC(F)(F)C2)c2ccccc2Cl)c1 [Compound 175, (S)—N—((S)-1-(2-Chlorophenyl)-2-((3,3-difluorocyclobutyl)amino)-2-oxoethyl)-1-(4-cyanopyri-din-2-yl)-N-(1H-indazol-5-yl)-5-oxopyrrolidine-2-carboxamide]
N#Cc1ccnc(N2C(=O)CC[C@H]2C(=O)N(c2cncc(F)c2)[C@H](C(=O)NC2CC(F)(F)C2)c2ccccc2Cl)c1 [Compound 176, (S)—N—((S)-1-(2-Chlorophenyl)-2-(3,3-difluorocyclobutylamino)-2-oxoethyl)-1-(4-cyanopyridin-2-yl)-N-(5-fluoropyridin-3-yl)-5-oxopyrrolidine-2-carboxamide]
N#Cc1cc(F)cc(N(C(=O)[C@@H]2CCC(=O)N2c2cc(C#N)ccn2)[C@H](C(=O)NC2CC(F)(F)C2)c2ccccc2Cl)c1 [Compound 177, (S)—N—((S)-1-(2-Chlorophenyl)-2-(3,3-difluorocyclobutylamino)-2-oxoethyl)-N-(3-cyano-5-fluorophenyl)-1-(4-cyanopyridin-2-yl)-5-oxopyrrolidine-2-carboxamide]
CC(C)(O)c1cccc(N(C(=O)[C@@H]2CCC(=O)N2c2cc(C#N)ccn2)[C@H](C(=O)NC2CC(F)(F)C2)c2ccccc2Cl)c1 [Compound 179, (S)—N—((S)-1-(2C)-2-((3,3-difluorocyclobutyl)amino)-2-oxoethyl)-1-(4-cyanopyridin-2-yl)-N-(3-(2-hydroxypropan-2-yl)phenyl)-5-oxopyrrolidine-2-carboxamide]
N#Cc1ccnc(N2C(=O)CC[C@H]2C(=O)N(c2cccc(OC(F)(F)F)c2)C(C(=O)NC2CC(F)(F)C2)c2ccccc2Cl)n1 (stereo partly drawn) [Compound 180, (2S)—N-(1-(2-Chlorophenyl)-2-((3,3-difluorocyclobutyl)amino)-2-oxoethyl)-1-(4-cyanopyrimidin-2-yl)-5-oxo-N-(3-(trifluoromethoxy)phenyl)pyrrolidine-2-carboxamide]
N#Cc1ccnc(N2C(=O)CC[C@H]2C(=O)N(c2cccc(OC(F)F)c2)[C@H](C(=O)NC2CC(F)(F)C2)c2ccccc2Cl)c1 [Compound 181, (S)—N—((S)-1-(2-Chlorophenyl)-2-((3,3-difluorocyclobutyl)amino)-2-oxoethyl)-1-(4-cyanopyridin-2-yl)-N-(3-(difluoromethoxy)phenyl)-5-oxopyrrolidine-2-carboxamide]
N#Cc1ccnc(N2C(=O)CC[C@H]2C(=O)N(c2cccc(C3CC3)c2)[C@H](C(=O)NC2CC(F)(F)C2)c2ccccc2Cl)n1 [Compound 182, (S)—N—((S)-1-(2-Chlorophenyl)-2-((3,3-difluorocyclobutyl)amino)-2-oxoethyl)-1-(4-cyanopyri-midin-2-yl)-N-(3-cyclopropylphenyl)-5-oxopyrrolidine-2-carboxamide]
N#Cc1cc(F)cc(N(C(=O)[C@@H]2CCC(=O)N2c2cc(C#N)ccn2)[C@H](C(=O)NC2CCC(F)(F)CC2)c2ccccc2Cl)c1 [Compound 184, (S)—N—((S)-1-(2-Chlorophenyl)-2-(4,4-difluorocyclohexylamino)-2-oxoethyl)-N-(3-cyano-5-fluorophenyl)-1-(4-cyanopyridin-2-yl)-5-oxopyrrolidine-2-carboxamide]
N#Cc1cc(F)cc(N(C(=O)[C@@H]2CCC(=O)N2c2nccc(C#N)n2)[C@H](C(=O)NC2CCC(F)(F)CC2)c2ccccc2Cl)c1 [Compound 185, (S)—N—((S)-1-(2-Chlorophenyl)-2-((4,4-difluorocyclohexyl)amino)-2-oxoethyl)-N-(3-cyano-5-fluorophenyl)-1-(4-cyanopyrimidin-2-yl)-5-oxopyrrolidine-2-carboxamide]
N#Cc1ccnc(N2C(=O)CC[C@H]2C(=O)N(c2ccccc2F)[C@H](C(=O)NC2CC(F)(F)C2)c2ccccc2Cl)c1 [Compound 187, (S)—N—((S)-1-(2-Chlorophenyl)-2-((3,3-difluorocyclobutyl)amino)-2-oxoethyl)-1-(4-cyanopyridin-2-yl)-N-(2-fluorophenyl)-5-oxopyrrolidine-2-carboxamide]
N#Cc1ccnc(N2C(=O)CC[C@H]2C(=O)N(c2cccc(F)c2F)[C@H](C(=O)NC2CC(F)(F)C2)c2ccccc2Cl)c1 [Compound 188, (S)—N—((S)-1-(2-Chlorophenyl)-2-((3,3-difluorocyclobutyl)amino)-2-oxoethyl)-1-(4-cyanopyridin-2-yl)-N-(2,3-difluorophenyl)-5-oxopyrrolidine-2-carboxamide]
